Source: patent US20200188297A1, “LXR Agonist in Topical Ophthalmic Formulation for Treatment of Dry-Eye Disorder” (eyeNOS, Inc., priority 2018, published 2020)
Where two headings read alike, the source gives them in different places.

Legend:
[1] = test system: human corneal epithelial cells (HCE-T); experiment: Multiplex cytokine expression analysis, hyperosmolar stress insult; assay type: cell-based; conditions: 200 nM, preincubation 1 hour, 600 mOsm for 20 hours
Protocol: The anti-inflammatory effects of T0901317 were studied on in-vitro cell culture of human corneal epithelial cells (HCE-T). HCE-T cells were grown in DMEM/F12 (1:1), 5% fetal bovine serum, penicillin-streptomycin, […] insulin, 10 ng/ml human recombinant epidermal growth factor and 0.5% dimethyl sulfoxide in 5% CO2 at 37° C. To simulate dry-eye conditions, the cells were exposed to hyperosmolar stress insult as described in Chen et al, “Hyperosmolarity-Induced Cornification of Human Corneal Epithelial Cells Is Regulated by JNK MAPK” (February 2008) Investigative Ophthalmology & Visual Science, 49(2):539-549. Confluent HCE-T were passaged into 12-well plates containing KSFM media (keratinocyte-SFM media) for 24 hours, and then NaCl was added to wells in concentrations to produce media osmolarities in the range of 350-800 mOsm. Multiplex cytokine expression analysis was performed to determine the anti-inflammatory effects of T0901317 (at 200 nM).

[2] = test system: human corneal epithelial cells (HCE-T); experiment: Multiplex cytokine expression analysis, LPS-induced secretion; assay type: cell-based; conditions: LPS 10 ng/ml, preincubation with compound
Protocol: The anti-inflammatory effects of T0901317 were studied on in-vitro cell culture of human corneal epithelial cells (HCE-T). […] Multiplex cytokine expression analysis was performed to determine the anti-inflammatory effects of T0901317 (at 200 nM). […] Lipopolysaccharide (LPS)-induced (10 ng/ml) secretion of IL-17, IL-18, and IFNγ was also examined. […] Topical application is not expected to result in activation of the pregnane X receptor (PXR), supporting the notion that the anti-inflammatory effects observed here, both in-vivo and in-vitro, can be attributed to LXR activation.

retinoid X receptor = conditions: read-out: EC50 for activation of the retinoid X receptor; cited from earlier work
[3] = test system: liver X receptors (LXRα, LXRβ); conditions: cited from earlier work
[4] = test system: human corneal epithelial (HCE-T) cells; experiment: ZO-1 immunocytochemistry (barrier function) under hyperosmolar stress; assay type: cell-based; conditions: 0.05 μM in DMSO, pre-treated one hour; 50 mM NaCl overnight; FIG. 20
Protocol: The corneal epithelium serves as a physiological barrier. However, inflammation and the ensuing oxidative stress can impair barrier function and contribute to the exacerbation of inflammatory processes and increase susceptibility to other ocular surface conditions, such as corneal keratitis. The effect of ouabagenin on the barrier function of human corneal epithelial (HCE-T) cells was tested in in-vitro experiments. The cells were seeded at 25,000 cells/well in 8-chamber slides. Cells were incubated for 3 days at 37° C. until confluent. Cells were pre-treated with DMSO (vehicle) or ouabagenin (0.05 μM in DMSO). One hour later, cells received treatment of 0 (media), 25, 50, or 75 mM NaCl to mimic hyperosmolar conditions. Cells were incubated overnight at 37° C.
Zona occludens 1 (ZO-1) is a tight junction protein that is involved in the barrier function of corneal epithelium. The presence of ZO-1 (or absence thereof) is an indicator of the health of this barrier. In this experiment, immunocytochemistry for ZO-1 was performed on the HCE-T cells after the overnight incubation. Slides were imaged under a fluorescent microscope.

| Compound | hyperosmolar stress-induced secretion of IL-12 ([1]; FIG. 19B) | hyperosmolar stress-induced secretion of IL-17 ([1]; FIG. 19C) | LPS-induced secretion of IL-17 ([2]; FIG. 19D) | LPS-induced secretion of IL-18 ([2]; FIG. 19E) | LPS-induced secretion of IFNγ ([2]; FIG. 19F) | EC50 (retinoid X receptor) [µM] | LXR subtype selectivity [3] | ZO-1 at the cell junctions (barrier function) [4] | LXR subtype selectivity ([3]; literature reports) |
| --- | --- | --- | --- | --- | --- | --- | --- | --- | --- |
| O=S(=O)(c1ccccc1)N(CC(F)(F)F)c1ccc(C(O)(C(F)(F)F)C(F)(F)F)cc1 [T0901317] | fully suppressed | fully suppressed | suppressed | suppressed | suppressed | 5 | selective for the LXRα subtype | – | – |
| C[C@]12C[C@@H](O)[C@H]3[C@@H](CC[C@]4(O)C[C@@H](O)C[C@@H](O)[C@]34CO)[C@@]1(O)CC[C@@H]2C1=CC(=O)OC1 [ouabagenin] | – | – | – | – | – | – | – | protected against this loss of ZO-1 barrier function | LXRβ-subtype specific agonist |
